Results from US20080280838A1, “Composition Containing Ginsenoside F1 and Egcg for Preventing Skin Damage” (Amorepacific Corporation, priority 2004, published 2008).

What was measured:
HaCaT cells = experiment: MTT-reduction assay: antiapoptotic effect against UV-induced apoptosis in HaCaT cells; assay type: cell-based, Human; details: 60 mJ/cm^2 UVB; for UV-caused apoptotic cell population compared with untreated control cells: 24 hours after UV irradiation
Method: (§1) Human keratinocyte HaCaT cell line was provided by Dr. N. E. Fusenig (Deutsches Krebsforschungszentrum(DKFZ), Heidelberg, Germany) and cultured in DMEM (Dulbecco's modified Eagle's medium, Gibco 1210-0038) supplemented with 10% fetal bovine serum. Cultures were incubated at 37° C., in humidified air with 5% CO2.
Cell lines cultured in Step 1 were treated with trypsin to give a single-cell suspension and seeded into a 6-well microplate at 2×10^5 cells per well, then cultured for 24 hours. Subsequently, the culture medium was refreshed with serum-free DMEM and cells were cultured for another 24 hours. The microplate was then treated with 2 μM ginsenoside F1; 10 μM EGCG; a combination of 2 μM ginsenoside F1 and 10 μM EGCG; 5 μM ginsenoside F1; and 50 μM EGCG in separate wells.
For reference, ginsenoside F1 was dissolved in 100% ethanol at a 1/1000-fold concentration to the medium and EGCG (Sigma) was dissolved in dimethyl sulfoxide (DMSO) at a 1/1000-fold concentration to the medium, and then added at the required amount to the culture mediums.
After 24-hour treatment of each test sample, each microplate was washed with phosphate buffered saline (PBS) and exposed to 60 mJ/cm^2 of UVB in the presence of PBS. PBS was then removed and the culture medium was refreshed with a medium containing each compound at the corresponding concentration. As a control, untreated cells were cultured in the same way.
24 hours after UV irradiation, to the microplates treated with each compound or untreated was added 3-(4,5-dimethyl thiazol-2-yl)-2,5-diphenyltetrazolium bromide (MTT, Sigma) solution, and then the cells were cultured at 37° C. for 4 hours. DMSO was added and dissolved completely. The optical density (OD) of formazan formed at 540 nm was measured using an ELISA reader (Thermo Max, Molecular Devices Co.). Cell viability in each test group was evaluated as a relative value, considering OD of untreated control cells as 100%.

Bcl-2 = experiment: Western-blot analysis of UV-induced down-regulation of Bcl-2 expression in HaCaT cells; assay type: cell-based, Human; details: 60 mJ/cm^2 UVB
Method: as §1
Cell lines cultured in Step 1 were treated with trypsin to give a single-cell suspension and seeded into 6-well microplates at […] per well, then cultured for 24 hours. Subsequently, the culture medium was refreshed with serum-free DMEM and cells were cultured for another 24 hours. The microplates were then treated with 2 μM ginsenoside F1; 10 μM EGCG; a combination of 2 μM ginsenoside F1 and 10 μM EGCG; 5 μM ginsenoside F1; and 50 μM EGCG, respectively. Ginsenoside F1 was dissolved in 100% ethanol at a 1/1000-fold concentration to the medium and EGCG (Sigma) was dissolved in DMSO at a 1/1000-fold concentration to the medium. […]
24 hours after UV irradiation, cells treated with each compound or untreated were washed with PBS and harvested by treating with trypsin. […] Supernatants were collected by centrifugation at 15,000×g for 10 minutes at 4° C. and protein concentrations were determined using BIO-Rad Protein Dye Reagent™. […] The bands on the film were scanned using PowerLook 2100 XL (UMAX) and analyzed with ImageMaster 2D Elite software (Amersham Biosciences).

Compound: O=C(O[C@@H]1Cc2c(O)cc(O)cc2O[C@@H]1c1cc(O)c(O)c(O)c1)c1cc(O)c(O)c(O)c1 [EGCG, (−)epigallocatechin-3-gallate]
- UV-caused apoptotic cell population compared with untreated control cells (HaCaT cells; 10 μM EGCG alone): no difference
- antiapoptotic effect relative to combined treatment (2 μM ginsenoside F1 and 10 μM EGCG) (HaCaT cells; 50 μM EGCG alone): similar
- Bcl-2 expression compared with the untreated control group (Bcl-2; 10 μM EGCG alone): no difference

Compound: CC(C)=CCC[C@](C)(O[C@@H]1O[C@H](CO)[C@@H](O)[C@H](O)[C@H]1O)[C@H]1CC[C@]2(C)[C@@H]1[C@H](O)C[C@@H]1[C@@]3(C)CC[C@H](O)C(C)(C)[C@@H]3[C@@H](O)C[C@]12C [ginsenoside F1, 20-O-β-D-glucopyranosyl-20(S)-protopanaxatriol]
- UV-caused apoptotic cell population compared with untreated control cells (HaCaT cells; 2 μM ginsenoside F1 alone): no difference
- antiapoptotic effect relative to combined treatment (2 μM ginsenoside F1 and 10 μM EGCG) (HaCaT cells; 5 μM ginsenoside F1 alone): similar
- Bcl-2 expression compared with the untreated control group (Bcl-2; 2 μM ginsenoside F1 alone): no difference
